Data from US7671054B1, “Reverse-turn mimetics and method relating thereto” (Choongwae Pharma Corporation, priority 2001, dated 2010).
Like-named read-outs stand apart in the source and are kept apart here.

Assays:
Type in all cases: cell-based
[1] = system: SW480 cells; assay: Growth inhibition assay (MTS); conditions: Homo sapiens, Table 5, SW480 cells, 48 hours treatment, MTS, read-out: Growth Inhibition (GI50, uM) SW480
Method: (§1) SW480 or HCT116 cells were placed into 96 well microplate (10^4cells/well) and incubated for 24 hours at 37° C. 20 μl of [3-(4,5-dimethylthiazol-2-yl)-5-(3-carboxyphenyl)-2-(4-sulfophenyl)-2H-tetrazolium, inner salt](MTS) solution (Promega) was added into each well and the absorbance after 2 hour incubation at 37° C. (negative control) was read. And then, the cells were treated with TCF4 compound at various concentrations for 48 hours. 20 μl of MTS solution (Promega) was added into each well and incubated for 2 hour at 37° C. Cell viability was measured by reading the absorbance at 490 nm using a microplate reader (Molecular device) and cytotoxicity of a compound at each concentration was calculated.
as §1, with “a test” for “TCF4”

[2] = system: HCT116 cells; assay: Growth inhibition assay (MTS); conditions: Homo sapiens, Table 5, HCT116 cells, 48 hours treatment, MTS, read-out: Growth Inhibition (GI50, uM) HCT116
Method: as §1
as §1, with “a test” for “TCF4”

[3] = system: TCF4/β-catenin transcription (TOPFlash) in SW480 cells; assay: Reporter gene assay (TOPFlash luciferase); conditions: Homo sapiens, SW480, Table 4; Reporter gene assay as described in Example 6; read-out: IC50
Summary of the method: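 SW480 cells transiently co-transfected with TOPFlash and pRL-null (4:1 µg) using Superfect, then reseeded at 3×10^4 cells/well and incubated overnight at 37 °C. Compound treatment lasted 24 h before luciferase read-out.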

Compound	GI50 ([1]; SW480, 48 h)	GI50 ([2]; HCT-116, 48 h)	other results
[2H]C([2H])(c1ccc(O)cc1)[C@H]1C(=O)N(Cc2cccc3ccccc23)C[C@H]2N1C(=O)CN(C)N2C(=O)NCc1ccccc1 [Compound 135]	3.2 ± 0.4 µM	3.1 ± 0.8 µM	–
CCN(CC)c1cc(F)ccc1[C@H](C)N1C[C@H]2N(C(=O)CN(C)N2C(=O)NCc2ccccc2)[C@@H](Cc2ccc(O)cc2)C1=O [Compound 41]	34.4 ± 9.6 µM	14.7 ± 2.6 µM	–
CN(c1cccc(CN2C[C@H]3N(C(=O)CN(C)N3C(=O)NCc3ccccc3)[C@@H](Cc3ccc(O)cc3)C2=O)c1)C1CC1 [Compound 36]	21.9 ± 2.3 µM	12.7 ± 1.3 µM	–
C=CCN1CC(=O)N2[C@@H](Cc3ccc(O)c(F)c3)C(=O)N(Cc3cccc4scnc34)C[C@@H]2N1C(=O)NCc1ccccc1 [Compound 186]	1.7 ± 0.1 µM	2 ± 0.2 µM	–
C#CCN1CC(=O)N2[C@@H](Cc3ccc(O)cc3)C(=O)N(Cc3ccc(F)cc3F)[C@@H](C)[C@@H]2N1C(=O)NCc1ccccc1 [Compound 84]	–	–	GI50 [1]: 8.4 ± 1.1 µM; GI50 ([2]; HCT-116): 9.9 ± 1 µM
CN1CC(=O)N2[C@@H](Cc3ccc(O)cc3)C(=O)N(Cc3ccc(F)cc3F)C[C@@H]2N1C(=O)NCc1ccc(F)cc1 [Compound 170]	8.9 ± 0.8 µM	8.6 ± 0.8 µM	–
C=CCN1CC(=O)N2[C@@H](Cc3ccc(O)cc3)C(=O)N(Cc3ccc4ncsc4c3)C[C@@H]2N1C(=O)NCc1ccccc1 [Compound 114]	1.7 ± 0.7 µM	1.9 ± 0.2 µM	–
C=CCN1CC(=O)N2[C@@H](Cc3ccc(O)cc3)C(=O)N(Cc3cccc4c3OCC4)C[C@@H]2N1C(=O)NCc1ccccc1 [Compound 175]	3 ± 0.4 µM	2.5 ± 0.1 µM	–
CN(C)c1cc(F)ccc1CN1C[C@H]2N(C(=O)CN(C)N2C(=O)NCc2ccccc2)[C@@H](Cc2ccc(O)cc2)C1=O [Compound 27]	11.7 µM	1.13 µM	–
C=CCN1CC(=O)N2[C@@H](Cc3ccc(O)cc3)C(=O)N(Cc3ccc(OC)cc3)C[C@@H]2N1C(=O)NCc1ccc(Cl)c(Cl)c1 [Compound 185]	4.9 ± 0.4 µM	4.5 ± 0.2 µM	–
C=CCN1CC(=O)N2[C@@H](Cc3ccc(O)cc3)C(=O)N(Cc3ccc(Cl)c(N4CCOCC4)c3)C[C@@H]2N1C(=O)NCc1ccccc1 [Compound 111]	2.7 ± 0.8 µM	2.1 ± 0.2 µM	–
C[C@H]1[C@@H]2N(C(=O)CN(C)N2C(=O)NCc2ccccc2)[C@@H](Cc2ccc(O)cc2)C(=O)N1Cc1ccc(F)cc1F [Compound 45]	2.5 ± 0.2 µM	2.9 ± 0.4 µM	–
C#CCn1ncc2ccc(CN3C[C@H]4N(C(=O)CN(C)N4C(=O)NCc4ccccc4)[C@@H](Cc4ccc(O)cc4)C3=O)cc21 [Compound 68]	3.7 ± 0.2 µM	3.8 ± 0.6 µM	–
C=CCN1CC(=O)N2[C@@H](Cc3ccc(O)cc3)C(=O)N(Cc3ccc(OC(F)(F)F)cc3)C[C@@H]2N1C(=O)NCc1ccccc1 [Compound 181]	2.3 ± 0.1 µM	2.3 ± 0.1 µM	–
CN1CC(=O)N2[C@@H](Cc3ccc(O)cc3)C(=O)N(Cc3cccc4cnn(Cc5ccc(N)cc5)c34)C[C@@H]2N1C(=O)NCc1ccccc1 [Compound 78]	2.2 ± 0.2 µM	3.7 ± 0.3 µM	–
C=CCN1CC(=O)N2[C@@H](Cc3ccc(O)cc3)C(=O)N(Cc3ccccc3)C[C@@H]2N1C(=O)NCc1ccc(Cl)c(Cl)c1 [Compound 177]	1.8 ± 0.1 µM	1.6 ± 0.1 µM	–
CN1CC(=O)N2[C@@H](Cc3ccc(O)cc3)C(=O)N(Cc3cccc4cnn(Cc5cccc(N)c5)c34)C[C@@H]2N1C(=O)NCc1ccccc1 [Compound 67]	0.6 ± 0.2 µM	0.3 ± 0.03 µM	–
CN1CC(=O)N2[C@@H]([C@H](O)c3ccc(O)cc3)C(=O)N(Cc3ccc(F)cc3F)C[C@@H]2N1C(=O)NCc1ccccc1 [Compound 86]	9.6 ± 1.6 µM	6.5 ± 0.6 µM	–
COc1ccccc1CN1C[C@H]2N(C(=O)CN(C)N2C(=O)NCc2ccccc2)[C@@H](Cc2ccc(O)cc2)C1=O [Compound 2]	2.58 µM	2.23 µM	–
C=CCN1CC(=O)N2[C@@H](Cc3ccc(O)cc3)C(=O)N(Cc3cc(F)c(F)cc3N(C)C)C[C@@H]2N1C(=O)NCc1ccccc1 [Compound 132]	2.5 ± 0.1 µM	2.2 ± 1.2 µM	–

Compound	GI50 ([1]; SW480, 48 h)	GI50 ([2]; HCT-116, 48 h)	other results
C=CCN1CC(=O)N2[C@@H](Cc3ccc(O)cc3)C(=O)N(Cc3cc(C)cc4c3N(C)CCO4)C[C@@H]2N1C(=O)NCc1ccccc1 [Compound 137]	1.4 ± 0.4 µM	1.3 ± 0.3 µM	–
C=CCN1CC(=O)N2[C@@H](Cc3ccc(O)cc3)C(=O)N(Cc3cccc4c3OCCO4)C[C@@H]2N1C(=O)NCc1ccccc1 [Compound 173]	–	–	GI50 [1]: 0.6 ± 0.1 µM; GI50 ([2]; HCT-116): 0.8 ± 0.1 µM
C#CCN1CC(=O)N2[C@@H](Cc3ccc(O)cc3)C(=O)N(Cc3ccc(C)c(N4CCOCC4)c3)C[C@@H]2N1C(=O)NCc1ccccc1 [Compound 106]	4.5 ± 0.3 µM	2.8 ± 0.4 µM	–
CN1CC(=O)N2[C@@H](Cc3ccc(O)cc3)C(=O)N(Cc3ccccc3C(F)(F)F)C[C@@H]2N1C(=O)NCc1ccccc1 [Compound 10]	–	–	GI50 [1]: 2.34 µM; GI50 ([2]; HCT-116): 1.66 µM
C=CCN1CC(=O)N2[C@@H](Cc3ccc(O)cc3)C(=O)N(Cc3ccc(F)cc3F)C[C@@H]2N1C(=O)NCc1ccc(F)cc1 [Compound 145]	6.4 ± 0.1 µM	5.9 ± 0.3 µM	–
C#CCN1CC(=O)N2[C@@H](Cc3ccc(O)cc3)C(=O)N(Cc3ccc(Cl)c(N(C)C)c3)C[C@@H]2N1C(=O)NCc1ccccc1 [Compound 83]	2.3 ± 0.3 µM	2.5 ± 0.1 µM	–
C=CCN1CC(=O)N2[C@@H](Cc3ccc(O)cc3)C(=O)N(Cc3cccc(N(C)C)c3)C[C@@H]2N1C(=O)NCc1ccccc1 [Compound 162]	1 ± 0.3 µM	1.3 ± 0.7 µM	–
C=CCN1CC(=O)N2[C@@H](Cc3ccc(O)cc3)C(=O)N(Cc3cccc(OCCN4CCOCC4)c3)C[C@@H]2N1C(=O)NCc1ccccc1 [Compound 104]	< 0.4 µM	< 0.4 µM	–
CCN(C)c1cccc(CN2C[C@H]3N(C(=O)CN(C)N3C(=O)NCc3ccccc3)[C@@H](Cc3ccc(O)cc3)C2=O)c1 [Compound 25]	24.5 µM	1.81 µM	–
C=CCN1CC(=O)N2[C@@H](Cc3ccc(O)cc3)C(=O)N(Cc3cccc(N4CCCC4=O)c3)C[C@@H]2N1C(=O)NCc1ccccc1 [Compound 123]	–	1.7 ± 0.3 µM	–
C#CCN1CC(=O)N2[C@@H](Cc3ccc(O)cc3)C(=O)N(Cc3cc(F)c(F)cc3N(C)C)C[C@@H]2N1C(=O)NCc1ccccc1 [Compound 81]	–	1.8 ± 0.1 µM	–
COc1cccc(CN2CC3N(C(=O)CN(C)N3C(=O)NCc3ccccc3)[C@@H](Cc3ccc(O)cc3)C2=O)c1OC (stereo partly drawn) [Compound 23]	–	–	IC50 [3]: 10.7 µM
CN(c1cccc(CN2C[C@H]3N(C(=O)CN(C)N3C(=O)NCc3ccccc3)[C@@H](Cc3ccc(O)cc3)C2=O)c1)C1CC1 [Compound 57]	–	–	IC50 [3]: 9.4 ± 1.5 µM
C[C@H](c1cccc(N(C)C)c1)N1C[C@H]2N(C(=O)CN(C)N2C(=O)NCc2ccccc2)[C@@H](Cc2ccc(O)cc2)C1=O [Compound 61]	–	–	IC50 [3]: 25.8 µM
COc1ccccc1CN1C[C@H]2N(C(=O)CN(C)N2C(=O)NCc2ccccc2)[C@@H](Cc2ccc(O)cc2)C1=O [Compound 26]	–	–	IC50 [3]: 7.1 µM
CCN(CC)c1cccc(CN2C[C@H]3N(C(=O)CN(C)N3C(=O)NCc3ccccc3)[C@@H](Cc3ccc(O)cc3)C2=O)c1 [Compound 47]	–	–	IC50 [3]: 3.5 µM
C[C@@H](c1ccc(Cl)c2cccnc12)N1CC2N(C(=O)CN(C)N2C(=O)NCc2ccccc2)[C@@H](Cc2ccc(O)cc2)C1=O (stereo partly drawn) [Compound 196]	–	–	IC50 [3]: 27.4 ± 2.8 µM
CCCN1CC(=O)N2[C@@H](Cc3ccc(NC=O)cc3)C(=O)N(Cc3ccc(F)cc3F)C[C@@H]2N1C(=O)NCc1ccccc1 [Compound 160]	–	–	IC50 [3]: 10.6 ± 0.5 µM
CN1CC(=O)N2[C@@H](Cc3ccc(O)cc3)C(=O)N(Cc3cccc(N4CCOCC4)c3)C[C@@H]2N1C(=O)NCc1ccccc1 [Compound 117]	–	–	IC50 [3]: 6.9 ± 0.6 µM
CN1CC(=O)N2C(CN(Cc3cccc(C(F)(F)F)c3)C(=O)[C@@H]2Cc2ccc(O)cc2)N1C(=O)NCc1ccccc1 (stereo partly drawn) [Compound 15]	–	–	IC50 [3]: 4.2 µM
